From the supplement of paper PMC10307832

Experiments:
Experiment in all cases: relative viability (nuclei count vs DMSO), 5 days (fraction); higher = more cells survive
[1] = compound: C[As](C)SC[C@H](NC(=O)CC[C@H](N)C(=O)O)C(=O)NCC(=O)O [Darinaparsin] + CCNC(=O)c1noc(-c2cc(C(C)C)c(O)cc2O)c1-c1ccc(CN2CCOCC2)cc1 [Luminespib] (partner 0.01 µM)
Outline: (§1)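 Lung cancer cell lines, seeded in 1536-well plates, were treated the following day by pin tool with a single drug or with five library-drug doses (not always all listed) in √10 steps on top of a fixed anchor-drug dose. Cells were fixed and nuclei stained in one step after 5 days, and nuclei were counted. Relative viability is the nuclei count for treated wells divided by that for vehicle wells, reported as medians of duplicate plates.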

AZ628 + Decitabine = compound: CC1=C(C=C(C=C1)NC(=O)C2=CC(=CC=C2)C(C)(C)C#N)NC3=CC4=C(C=C3)N=CN(C4=O)C [AZ628] + Nc1ncn([C@H]2C[C@H](O)[C@@H](CO)O2)c(=O)n1 [Decitabine] (partner 2 µM)
Outline: as §1

QS11 + Bortezomib = compound: C1CC2=C(C1)C=C(C=C2)OC3=NC(=C4C(=N3)N(C=N4)CC5=CC=C(C=C5)C6=CC=CC=C6)N[C@@H](CC7=CC=CC=C7)CO [QS11] + CC(C)C[C@H](NC(=O)[C@H](Cc1ccccc1)NC(=O)c1cnccn1)B(O)O [Bortezomib] (partner 0.002 µM)
Outline: as §1

QS11 + Crizotinib = compound: C1CC2=C(C1)C=C(C=C2)OC3=NC(=C4C(=N3)N(C=N4)CC5=CC=C(C=C5)C6=CC=CC=C6)N[C@@H](CC7=CC=CC=C7)CO [QS11] + C[C@@H](Oc1cc(-c2cnn(C3CCNCC3)c2)cnc1N)c1c(Cl)ccc(F)c1Cl [Crizotinib] (partner 1 µM)
Outline: as §1

Cell Line | relative viability ([1]; first compound 0.08 µM) | relative viability ([1]; first compound 0.8 µM) | relative viability ([1]; first compound 2.53 µM) | relative viability ([1]; first compound 8 µM) | relative viability (AZ628 + Decitabine; first compound 0.08 µM) | relative viability (AZ628 + Decitabine; first compound 0.253 µM) | relative viability (AZ628 + Decitabine; first compound 0.8 µM) | relative viability (AZ628 + Decitabine; first compound 2.53 µM) | relative viability (AZ628 + Decitabine; first compound 8 µM) | relative viability (QS11 + Bortezomib; first compound 0.08 µM) | relative viability (QS11 + Bortezomib; first compound 0.253 µM) | relative viability (QS11 + Bortezomib; first compound 2.53 µM) | relative viability (QS11 + Bortezomib; first compound 8 µM) | relative viability (QS11 + Crizotinib; first compound 0.08 µM) | relative viability (QS11 + Crizotinib; first compound 0.253 µM) | relative viability (QS11 + Crizotinib; first compound 2.53 µM) | relative viability (QS11 + Crizotinib; first compound 8 µM) | relative viability (QS11 + Bortezomib; first compound 0.8 µM) | relative viability (QS11 + Crizotinib; first compound 0.8 µM)
NCI-H1793 | 0.238 | 0.162 | 0.161 | 0.175 | 0.616 | 0.442 | 0.458 | 0.441 | 0.184 |  |  |  |  |  |  |  |  |  | 
HARA | 1.19 | 0.684 | 0.659 | 0.773 | 0.414 | 0.441 | 0.461 | 0.448 | 0.289 | 1.25 | 1.19 | 1.05 | 1.24 | 1.11 | 1.1 | 1.1 | 1.04 |  | 
NCI-H2347 | 1.01 |  | 0.414 | 0.388 | 0.522 | 0.605 | 0.582 | 0.613 | 0.36 | 1.11 | 1.19 | 0.997 | 1.04 | 0.683 | 0.645 | 0.501 | 0.76 | 0.757 | 0.671
ABC-1 | 0.358 | 0.608 | 1.04 | 0.676 | 1.07 | 0.898 | 1.07 | 1.18 | 1.07 | 0.309 | 0.399 | 0.324 | 0.278 | 0.942 | 1.18 | 0.913 | 0.912 | 0.319 | 0.959
NCI-H2342 | 0.773 | 0.8 | 0.813 | 0.826 | 0.837 | 0.651 | 0.779 | 0.726 | 0.747 |  |  |  |  |  |  |  |  |  | 
NCI-H2126 | 0.984 | 1.02 | 0.722 | 0.931 | 0.567 | 0.571 | 0.632 | 0.606 | 0.593 | 1.1 | 1.07 | 1.22 | 0.904 | 1.05 | 1 | 0.897 | 0.758 | 0.882 | 0.855
HOP-62 | 1.1 | 0.811 | 0.793 | 1.09 | 0.235 | 0.265 | 0.236 | 0.249 | 0.214 | 0.718 | 1.01 | 0.594 | 0.652 | 0.853 | 0.863 | 0.703 | 0.45 | 0.728 | 0.846
NCI-H2085 | 0.45 | 0.383 | 0.545 | 0.398 | 0.534 | 0.563 | 0.569 | 0.575 | 0.609 | 0.952 | 1.03 | 1.06 | 1 | 0.907 | 0.95 | 0.776 | 0.802 | 1.16 | 0.84
NCI-H1944 | 0.84 | 0.705 | 0.686 | 0.676 | 0.426 | 0.434 | 0.414 | 0.416 | 0.282 |  |  |  |  | 1.13 | 1.43 | 0.91 | 0.834 |  | 
EMC-BAC-2 | 0.763 | 1.15 | 1.16 | 1.49 | 0.944 | 0.84 | 0.874 | 0.749 | 0.465 | 1.06 | 1.05 | 0.985 | 0.677 | 0.892 | 0.75 | 0.741 | 0.541 | 0.941 | 0.529
NCI-H2228 | 0.162 | 0.206 | 0.135 | 0.102 |  |  |  |  |  | 0.974 | 1.04 | 1.26 | 1.12 | 0.425 | 0.467 | 0.356 | 0.41 | 1.15 | 0.457
A-427 | 1.24 | 0.967 | 0.803 | 1.4 | 0.58 | 0.582 | 0.494 | 0.52 | 0.451 | 0.852 | 0.96 | 0.999 | 0.858 | 0.779 | 0.885 | 0.829 | 0.821 |  | 
EPLC-272H |  | 0.176 | 0.328 | 0.191 | 0.297 | 0.328 | 0.371 | 0.319 | 0.225 | 0.954 | 0.947 | 0.946 | 0.798 | 0.861 | 0.962 | 0.835 | 1.13 | 0.81 | 1.03
A549 |  |  |  |  | 0.262 | 0.24 | 0.268 | 0.287 | 0.206 |  |  |  |  | 0.791 | 0.773 | 0.483 | 0.522 |  | 0.613
NCI-H358 | 0.416 | 0.332 |  | 0.344 | 0.233 | 0.192 | 0.184 | 0.195 | 0.158 |  |  |  |  | 0.723 | 0.525 | 0.402 | 0.379 |  | 0.457
NCI-H2009 | 1.18 | 1.01 | 1.01 | 1.07 | 0.404 | 0.36 | 0.313 | 0.32 | 0.291 | 0.999 | 0.898 | 0.802 | 0.755 | 1.02 | 1.09 | 1.03 | 0.791 | 0.739 | 0.882
HCC-827 | 0.812 | 0.704 | 0.59 | 0.936 | 0.33 | 0.32 | 0.348 | 0.402 | 0.313 | 1.06 | 1.09 | 0.962 | 1.04 | 0.917 | 0.914 | 0.854 | 0.787 | 0.937 | 0.643
